Measured values reported in patent publication US10799478B2, “Treatment of androgen deprivation therapy associated symptoms” (priority 2014, dated 2020).
Read-outs that look alike come from different tables or passages of the source.

How the values were obtained:
[1] = test system: LnCAP human prostate cancer cells; test: LnCAP Gene Expression; assay type: cell-based; conditions: Homo sapiens, LNCaP
ORX Wistar male rats = test: In Vivo Study to Explore Direct Antagonist Effect of Example 1 in the Presence of TE; parameters: species or system rat
Description: Route of administration for all groups except TE is oral. TE is administered subcutaneously. At the end of 8 weeks of daily dosing, rats are euthanized, weighed & tissue harvested. Levator ani, prostates, and seminal vesicles are collected from each animal. Results are plotted as means±SE.

Orx rats = test: Orchidectomized Rat Assay; assay type: in vivo; conditions: PTH 10 ug/Kg/d sc, once daily 2 months
[2] = ORX + TE 1 mg/kg/d (control group of Dunnett's comparison)
[3] = ORX + TE 1 mg/kg/d sc alone, 8 weeks

C[C@]1(O)CC[C@H]2[C@@H]3CCC4=CC(=O)CCC4=C3C=C[C@@]21C [Example R1881]
EC50 ([1]; AR gene, read-out: LnCAP Gene Expression EC50 (nM) AR): 0.035 nM
EC50 ([1]; CLUSTERIN gene, read-out: LnCAP Gene Expression EC50 (nM) CLUSTERIN): 0.37 nM
EC50 ([1]; PSA gene, read-out: LnCAP Gene Expression EC50 (nM) PSA): 0.034 nM

CCCCCCC(=O)O[C@H]1CC[C@H]2[C@@H]3CCC4=CC(=O)CC[C@]4(C)[C@H]3CC[C@]12C [TE, testosterone enanthate, reference compound]
Prostate Weights, Abs(Dif) − LSD (ORX Wistar male rats; [2]): −0.15
Seminal Vesicle Wet Weights, Abs(Dif) − LSD (ORX Wistar male rats; [2]): −0.52
Prostate Weight, % Sham (ORX Wistar male rats; [3]): 45.5 % Sham
SV Weight, % Sham (ORX Wistar male rats; [3]): 58.5 % Sham

PTH: PTH (1-38) (Zeneca (Cambridge Research Biochemicals)), given sc as an injection (SVSEIQLMHNLGKHLNSMERVEWLRKKLQDVHNFVALG; Parathyroid hormone; UniProt P01270 32-69, looked up, fragment) [reference compound]
SV Weight, % Sham (Orx rats): 5.6 % Sham
